Experiments:
Assay type in all cases: in vivo
[1] = tested on: pigweed (Amaranthus retroflexus); assay: Test A greenhouse herbicide test, pre- and postemergence
In short: (§1)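 Visual injury ratings, 0 (no effect) to 100 (complete control), versus untreated plants after roughly 10 d in a greenhouse. Compounds, formulated in a surfactant-containing non-phytotoxic solvent, were sprayed on loam–sand soil after sowing (pre) or on one- to two-leaf plants 2–10 cm tall (post).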

[2] = tested on: ryegrass, Italian (Italian ryegrass, Lolium multiflorum); assay: as above
In short: as §1

[3] = tested on: wheat (Triticum aestivum); assay: as above; conditions: Postemergence
In short: as §1

[4] = tested on: blackgrass (Alopecurus myosuroides); assay: Test A greenhouse herbicide test, postemergence
In short: (§2)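 Scores are visual injury ratings from 0 (no effect) to 100 (complete control) versus untreated plants, taken roughly 10 d after treatment in the greenhouse. Treatment was postemergence, on one- to two-leaf plants 2–10 cm high growing in a loam soil/sand mix.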

[5] = tested on: galium (catchweed bedstraw, Galium aparine); assay: Test A greenhouse herbicide test, postemergence
In short: as §2

[6] = tested on: lambsquarters (Chenopodium album); assay: Test C greenhouse herbicide test, pre- and postemergence
In short: (§3)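 Percent-control ratings (0 none, 100 complete) came from visual comparison with controls held alongside in the greenhouse for 13–15 d. Treatments covered soil application at sowing and foliar application to young plants 2–18 cm tall.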

[7] = tested on: morningglory (Ipomoea coccinea); assay: as above
In short: as §3

[8] = tested on: oilseed rape (Brassica napus); assay: as above
In short: as §3

[9] = tested on: pigweed (Amaranthus retroflexus); assay: as above
In short: as §3

[10] = tested on: ragweed (common ragweed, Ambrosia elatior); assay: as above
In short: as §3

[11] = tested on: waterhemp (common waterhemp, Amaranthus rudis); assay: as above
In short: as §3

[12] = Postemergence, 125 g ai/ha, 0 to 100 scale where 0 is no effect and 100 is complete control
[13] = Postemergence, 500 g ai/ha, visual rating after approx. 10 d, 0 to 100 scale (0 no effect, 100 complete control)
[14] = Preemergence, 125 g ai/ha, 0 to 100 scale where 0 is no effect and 100 is complete control
[15] = Preemergence, 500 g ai/ha, 0 to 100 scale where 0 is no effect and 100 is complete control
[16] = 125 g ai/ha, 0 to 100 scale where 0 is no effect and 100 is complete control
[17] = 500 g ai/ha, visual rating after approx. 10 d, 0 to 100 scale (0 no effect, 100 complete control)
[18] = Postemergence, 31 g ai/ha, scale 0 to 100 (0 no effect, 100 complete control)
[19] = Postemergence, 62 g ai/ha, 0 to 100 scale (0 no effect, 100 complete control)
[20] = Postemergence, 250 g ai/ha, scale 0 to 100, 0 no effect, 100 complete control, 13 to 15 d
[21] = Preemergence, 31 g ai/ha, scale 0 to 100, 0 is no effect, 100 is complete control
[22] = Preemergence, 62 g ai/ha, scale 0 to 100, 0 is no effect, 100 is complete control
[23] = Preemergence, 125 g ai/ha, scale 0 to 100, 0 is no effect, 100 is complete control
[24] = Preemergence, 250 g ai/ha, scale 0 to 100, 0 no effect, 100 complete control
[25] = postemergence, 125 g ai/ha, scale 0 to 100, 0 no effect, 100 complete control
[26] = 4 g ai/ha, preemergence, visual rating, scale 0 to 100 (0 no effect, 100 complete control), 13 to 15 d
[27] = Postemergence, 8 g ai/ha, scale 0 to 100 (0 no effect, 100 complete control)
[28] = Postemergence, 16 g ai/ha, scale 0 to 100 (0 no effect, 100 complete control)
[29] = Preemergence, 16 g ai/ha, scale 0 to 100, 0 is no effect, 100 is complete control

Cc1nn(C)c(=O)c(-c2ccc(Cl)c3ccccc23)c1O [Compound 139]
30: Plant response rating, Wheat [3, 16] | Plant response rating, Wheat [3, 17]
80: Plant response rating, Pigweed [9, 18]
100: Plant response rating, Pigweed [1, 13] | Pigweed plant response rating [1, 14] | Plant response rating, Pigweed [1, 15] | Plant response rating, Ryegrass, Italian [2, 12] | Plant response rating, Ryegrass, Italian [2, 13] | Plant response rating, Ryegrass, Italian [2, 15] | Plant response rating, Galium [5, 16] | Plant response rating, Galium [5, 17] | Plant response rating, Lambsquarters [6, 20] | Plant response rating, Lambsquarters [6, 21] | Lambsquarters plant response rating [6, 25] | Morningglory plant response rating [7, 19] | Plant response rating, Morningglory [7, 20] | Morningglory plant response rating [7, 25] | Oilseed Rape plant response rating [8, 24] | Plant response rating, Pigweed [9, 23] | Pigweed plant response rating [9, 24] | Ragweed plant response rating [10, 24] | Waterhemp plant response rating [11, 19] | Plant response rating, Waterhemp [11, 20] | Plant response rating, Waterhemp [11, 21] | Plant response rating, Waterhemp [11, 22] | Plant response rating, Waterhemp [11, 23] | Waterhemp plant response rating [11, 24] | Waterhemp plant response rating [11, 25]
20: Plant response rating, Oilseed Rape [8, 21]
75: Plant response rating, Ragweed [10, 21]
0: Plant response rating, Ragweed [10, 18] | Ragweed plant response rating [10, 19] | Plant response rating, Ragweed [10, 20] | Ragweed plant response rating [10, 25]
90: Plant response rating, Blackgrass [4, 17] | Plant response rating, Lambsquarters [6, 22] | Plant response rating, Morningglory [7, 22] | Plant response rating, Ragweed [10, 22]
60: Plant response rating, Pigweed [1, 12] | Plant response rating, Blackgrass [4, 16]
70: Plant response rating, Pigweed [9, 21]
85: Plant response rating, Morningglory [7, 21]
95: Lambsquarters plant response rating [6, 19] | Plant response rating, Lambsquarters [6, 23] | Plant response rating, Morningglory [7, 23] | Plant response rating, Oilseed Rape [8, 18] | Oilseed Rape plant response rating [8, 19] | Plant response rating, Oilseed Rape [8, 20] | Pigweed plant response rating [9, 19] | Plant response rating, Ragweed [10, 23]
98: Plant response rating, Lambsquarters [6, 18] | Lambsquarters plant response rating [6, 24] | Plant response rating, Morningglory [7, 18] | Morningglory plant response rating [7, 24] | Plant response rating, Oilseed Rape [8, 22] | Plant response rating, Oilseed Rape [8, 23] | Oilseed Rape plant response rating [8, 25] | Plant response rating, Pigweed [9, 20] | Plant response rating, Pigweed [9, 22] | Pigweed plant response rating [9, 25] | Plant response rating, Waterhemp [11, 18]

Cc1ccc2ccc(Cl)cc2c1-c1c(O)c(C)nn(C)c1=O [Compound 144]
25: Plant response rating, Lambsquarters [6, 26] | Plant response rating, Morningglory [7, 26]
0: Plant response rating, Oilseed Rape [8, 26]
10: Plant response rating, Ragweed [10, 27] | Ragweed plant response rating [10, 27]
70: Plant response rating, Oilseed Rape [8, 21] | Plant response rating, Ragweed [10, 26]
90: Plant response rating, Wheat [3, 16] | Plant response rating, Blackgrass [4, 16] | Plant response rating, Lambsquarters [6, 27] | Plant response rating, Lambsquarters [6, 28] | Plant response rating, Lambsquarters [6, 18] | Morningglory plant response rating [7, 27] | Plant response rating, Morningglory [7, 21] | Plant response rating, Pigweed [9, 18] | Plant response rating, Waterhemp [11, 27] | Waterhemp plant response rating [11, 27] | Plant response rating, Waterhemp [11, 28]
5: Plant response rating, Oilseed Rape [8, 29]
85: Oilseed Rape plant response rating [8, 27] | Plant response rating, Pigweed [9, 27] | Plant response rating, Pigweed [9, 28]
80: Lambsquarters plant response rating [6, 27] | Plant response rating, Morningglory [7, 29] | Pigweed plant response rating [9, 27] | Plant response rating, Waterhemp [11, 26]
100: Plant response rating, Pigweed [1, 12] | Plant response rating, Pigweed [1, 13] | Pigweed plant response rating [1, 14] | Plant response rating, Pigweed [1, 15] | Plant response rating, Ryegrass, Italian [2, 12] | Plant response rating, Ryegrass, Italian [2, 13] | Plant response rating, Ryegrass, Italian [2, 15] | Plant response rating, Wheat [3, 17] | Plant response rating, Blackgrass [4, 17] | Plant response rating, Galium [5, 16] | Plant response rating, Galium [5, 17] | Plant response rating, Lambsquarters [6, 21] | Plant response rating, Pigweed [9, 29] | Plant response rating, Pigweed [9, 21] | Plant response rating, Waterhemp [11, 29] | Plant response rating, Waterhemp [11, 21]
65: Plant response rating, Lambsquarters [6, 29]
75: Plant response rating, Pigweed [9, 26]
98: Plant response rating, Morningglory [7, 28] | Plant response rating, Morningglory [7, 18] | Plant response rating, Ragweed [10, 21]
35: Plant response rating, Ragweed [10, 28] | Plant response rating, Ragweed [10, 18]
95: Plant response rating, Morningglory [7, 27] | Plant response rating, Oilseed Rape [8, 27] | Plant response rating, Oilseed Rape [8, 28] | Plant response rating, Oilseed Rape [8, 18] | Plant response rating, Ragweed [10, 29] | Plant response rating, Waterhemp [11, 18]

From patent publication US10597388B2, “Pyridazinone herbicides” (FMC CORPORATION, priority 2014, dated 2020)
